Assay results as given in article PMC12300325, “Antimicrobial and Anti-Inflammatory Activity of N-(2-Bromo-phenyl)-2-hydroxy-benzamide Derivatives and Their Inclusion Complexes” (Pharmaceutics, 2025).
Read-outs that look alike come from different tables or passages of the source.

Target: trypsin (Sus scrofa, UniProt P00761)
Test: casein digestion protease inhibition assay, absorbance at […] nm
Format: biochemical
[1] = read-out: IC50 (mg/mL) * (converted)

Chain of trypsin (P00761 9-231): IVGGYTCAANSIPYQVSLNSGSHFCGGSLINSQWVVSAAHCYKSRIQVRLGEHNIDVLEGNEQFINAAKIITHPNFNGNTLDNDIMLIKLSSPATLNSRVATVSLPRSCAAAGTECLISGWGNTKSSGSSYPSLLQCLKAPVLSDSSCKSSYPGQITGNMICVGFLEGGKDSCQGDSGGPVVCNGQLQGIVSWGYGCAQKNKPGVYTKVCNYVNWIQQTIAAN

Structure (SMILES): CCOC(=O)COc1ccccc1C(=O)Nc1ccccc1Br [EE, [2-(2-bromophenylcarbamoyl)phenoxy]acetic acid ethyl ester]
- IC50 [1]: 115 µM

Structure (SMILES): O=C(COc1ccccc1C(=O)Nc1ccccc1Br)NN=Cc1cc(Br)ccc1O [HN, 2-(5-bromo-2-hydroxy-benzylidene-hydrazinocarbonylmethoxy)-N-(2-bromo-phenyl)-benzamide]
- IC50 [1]: 102 µM

Structure (SMILES): NNC(=O)COc1ccccc1C(=O)Nc1ccccc1Br [HD, N-(2-bromo-phenyl)-2-hydrazinocarbonylmethoxy-benzamide]
- IC50 [1]: 171 µM

Structure (SMILES): CC(=O)Oc1ccccc1C(=O)O [acetylsalicylic acid, reference compound]
- IC50: 2250 µM
